Assay results taken from article PMC11837542, “Two NADPH-dependent 2-ketogluconate reductases involved in 2-ketogluconate assimilation in Gluconobacter sp. strain CHM43” (Applied and Environmental Microbiology, 2025).

Tests used:
GLF_1777 (2KGR) [1] = test system: T1, GLF_1777 (2KGR); assay: NADPH oxidation at […] nm, soluble cell extract of overexpressing strain; format: biochemical, Gluconobacter sp. CHM43; details: co-substrate 2KG; standard assay 10 mM K-2-ketogluconate, 50 mM Na-acetate pH 6.0, 25°C
T1 construct: untagged, full-length gene on plasmid pSKR57 in Gluconobacter sp; CHM43 delta-GLF_0478 (strain SKR104)

GLF_1777 (2KGR) [2] = test system: T1, GLF_1777 (2KGR); assay: NADH oxidation at […] nm, soluble cell extract of overexpressing strain; format: biochemical, Gluconobacter sp. CHM43; details: co-substrate 2KG; standard assay 10 mM K-2-ketogluconate, 50 mM Na-acetate pH 6.0, 25°C

| Structure (SMILES) | Km (GLF_1777 (2KGR) [1]) [µM] | Km (GLF_1777 (2KGR) [2]) [µM] |
| --- | --- | --- |
| NC(=O)C1=CN([C@@H]2O[C@H](COP(=O)(O)OP(=O)(O)OC[C@H]3O[C@@H](n4cnc5c(N)ncnc54)[C@H](OP(=O)(O)O)[C@@H]3O)[C@@H](O)[C@H]2O)C=CC1 [NADPH] | 3 ± 0.4 |  |
| NC(=O)C1=CN([C@@H]2O[C@H](COP(=O)(O)OP(=O)(O)OC[C@H]3O[C@@H](n4cnc5c(N)ncnc54)[C@H](O)[C@@H]3O)[C@@H](O)[C@H]2O)C=CC1 [NADH] |  | 100 ± 9 |
